Experimental data published in patent US12187742B2 (XRAD Therapeutics, Inc., priority 2018, dated 2025).
Where a name gives a salt, the structure may show the parent alone.

Experiments:
ATM = ATM (Homo sapiens (Human), UniProt Q13315); experiment: ATM in Cell Western Assay (pKAP1 in etoposide-treated MCF-7 cells); format: cell-based
How it was run: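 Cells received compounds in a 10-dose, 3-fold series from a 1 μM final top concentration, then 100 μM etoposide, for 1 hr at 37° C. They were then fixed with paraformaldehyde and permeabilized with 0.1% Triton X-100. After immunostaining, plates were scanned on an infrared imager.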

DNA-PK = DNA-PK (Homo sapiens (Human), UniProt P78527); experiment: DNA-PK Enzyme-Linked Immunosorbent Assay (phosphorylation of GST-p53 (1-101) peptide); format: biochemical; conditions: ELISA
How it was run: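 ELISA with plate-bound GST-p53 (1-101) phosphorylated by DNA-PK (0.1 μg/mL final) with 20 μM ATP for 1 h at 25 °C. Compounds tested over 10 3-fold doses from 100 nM top final. Phospho-p53 Ser15 detected by antibody, HRP and TMB, absorbance at 450 nm.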

[1] = MCF-7 cells, etoposide 100 μM, 1 hr, pKAP1 readout
[2] = pKAP1 in etoposide-treated MCF-7 cells

Chain of ATM (Q13315 whole entry): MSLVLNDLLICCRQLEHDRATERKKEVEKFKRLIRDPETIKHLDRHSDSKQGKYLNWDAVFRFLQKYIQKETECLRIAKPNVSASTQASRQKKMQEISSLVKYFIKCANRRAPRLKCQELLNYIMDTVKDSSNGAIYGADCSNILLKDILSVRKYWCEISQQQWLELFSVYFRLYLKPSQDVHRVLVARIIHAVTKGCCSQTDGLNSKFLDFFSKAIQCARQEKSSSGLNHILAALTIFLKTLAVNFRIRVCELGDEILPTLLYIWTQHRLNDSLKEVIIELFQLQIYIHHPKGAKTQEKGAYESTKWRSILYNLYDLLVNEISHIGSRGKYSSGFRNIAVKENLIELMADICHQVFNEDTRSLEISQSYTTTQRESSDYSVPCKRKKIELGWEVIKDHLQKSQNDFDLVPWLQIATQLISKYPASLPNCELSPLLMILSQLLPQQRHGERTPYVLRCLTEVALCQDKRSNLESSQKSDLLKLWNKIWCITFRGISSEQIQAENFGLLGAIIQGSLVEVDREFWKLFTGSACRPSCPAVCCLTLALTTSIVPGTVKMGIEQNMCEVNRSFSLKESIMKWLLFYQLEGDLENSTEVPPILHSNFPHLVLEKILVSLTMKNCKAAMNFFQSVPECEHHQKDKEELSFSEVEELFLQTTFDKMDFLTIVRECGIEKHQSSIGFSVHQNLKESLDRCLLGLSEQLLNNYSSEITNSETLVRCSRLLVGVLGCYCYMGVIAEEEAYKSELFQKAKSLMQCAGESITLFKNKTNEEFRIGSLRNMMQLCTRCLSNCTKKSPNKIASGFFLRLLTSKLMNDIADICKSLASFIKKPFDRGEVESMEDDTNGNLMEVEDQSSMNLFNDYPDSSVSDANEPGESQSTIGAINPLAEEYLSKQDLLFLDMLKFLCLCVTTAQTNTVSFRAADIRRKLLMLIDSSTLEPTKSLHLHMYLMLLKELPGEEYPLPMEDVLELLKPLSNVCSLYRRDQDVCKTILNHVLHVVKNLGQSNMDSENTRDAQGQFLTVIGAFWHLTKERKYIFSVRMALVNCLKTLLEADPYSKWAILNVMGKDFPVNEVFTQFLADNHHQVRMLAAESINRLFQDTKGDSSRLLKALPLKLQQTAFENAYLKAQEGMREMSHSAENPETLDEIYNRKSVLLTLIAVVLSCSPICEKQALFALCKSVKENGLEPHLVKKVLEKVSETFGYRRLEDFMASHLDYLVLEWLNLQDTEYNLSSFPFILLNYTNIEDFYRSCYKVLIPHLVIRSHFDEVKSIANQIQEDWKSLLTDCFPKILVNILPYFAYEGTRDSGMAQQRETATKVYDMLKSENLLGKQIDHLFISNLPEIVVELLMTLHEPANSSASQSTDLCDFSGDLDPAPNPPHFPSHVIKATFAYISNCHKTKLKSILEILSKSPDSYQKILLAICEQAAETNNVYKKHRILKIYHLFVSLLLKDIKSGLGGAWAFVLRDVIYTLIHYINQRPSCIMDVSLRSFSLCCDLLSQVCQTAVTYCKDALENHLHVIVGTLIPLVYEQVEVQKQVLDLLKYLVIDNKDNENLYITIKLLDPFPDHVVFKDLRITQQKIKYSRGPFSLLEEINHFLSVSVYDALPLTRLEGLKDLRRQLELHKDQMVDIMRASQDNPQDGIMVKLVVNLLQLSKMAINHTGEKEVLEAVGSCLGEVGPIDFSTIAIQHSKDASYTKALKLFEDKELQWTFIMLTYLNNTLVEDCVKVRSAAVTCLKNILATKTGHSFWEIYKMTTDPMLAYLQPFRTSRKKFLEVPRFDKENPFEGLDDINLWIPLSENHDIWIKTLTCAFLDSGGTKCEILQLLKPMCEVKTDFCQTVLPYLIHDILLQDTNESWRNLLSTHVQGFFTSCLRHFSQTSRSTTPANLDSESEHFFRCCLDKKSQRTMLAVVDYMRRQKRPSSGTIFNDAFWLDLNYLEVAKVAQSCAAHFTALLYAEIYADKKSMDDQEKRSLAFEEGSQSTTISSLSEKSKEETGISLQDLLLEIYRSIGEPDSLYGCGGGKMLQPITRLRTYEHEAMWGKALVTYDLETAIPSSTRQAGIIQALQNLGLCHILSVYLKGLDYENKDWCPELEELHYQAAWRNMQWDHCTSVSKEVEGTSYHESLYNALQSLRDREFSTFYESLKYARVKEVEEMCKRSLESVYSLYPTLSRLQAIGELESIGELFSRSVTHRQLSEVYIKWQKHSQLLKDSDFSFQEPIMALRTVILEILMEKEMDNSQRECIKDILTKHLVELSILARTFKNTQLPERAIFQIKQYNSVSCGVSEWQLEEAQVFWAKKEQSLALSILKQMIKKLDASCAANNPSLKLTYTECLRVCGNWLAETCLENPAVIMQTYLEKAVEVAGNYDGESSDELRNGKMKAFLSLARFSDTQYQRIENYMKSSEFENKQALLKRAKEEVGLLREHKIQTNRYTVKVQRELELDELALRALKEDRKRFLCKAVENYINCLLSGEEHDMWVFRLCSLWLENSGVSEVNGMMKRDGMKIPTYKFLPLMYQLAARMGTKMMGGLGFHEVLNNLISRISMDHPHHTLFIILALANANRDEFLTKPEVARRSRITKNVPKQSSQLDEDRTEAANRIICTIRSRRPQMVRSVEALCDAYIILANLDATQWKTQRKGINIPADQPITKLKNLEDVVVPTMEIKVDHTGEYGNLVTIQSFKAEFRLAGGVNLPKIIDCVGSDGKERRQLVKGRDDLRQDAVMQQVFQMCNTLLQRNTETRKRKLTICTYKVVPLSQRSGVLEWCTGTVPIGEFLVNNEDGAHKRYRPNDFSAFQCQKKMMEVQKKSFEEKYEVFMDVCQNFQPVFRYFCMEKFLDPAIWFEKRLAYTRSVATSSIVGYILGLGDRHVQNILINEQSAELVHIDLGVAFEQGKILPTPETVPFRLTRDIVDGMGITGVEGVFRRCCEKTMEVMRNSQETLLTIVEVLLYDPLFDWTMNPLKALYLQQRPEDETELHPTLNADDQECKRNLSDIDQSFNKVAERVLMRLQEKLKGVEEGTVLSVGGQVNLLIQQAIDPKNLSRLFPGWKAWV

Row | SMILES | IC50 (ATM; [1]) [nM] | IC50 (DNA-PK; ATP 20 μM) [nM] | IC50 (ATM; [2]) [nM] | IC50 (DNA-PK; 20 μM ATP) [nM]
1 | CN1C(=O)C2(CCC2)c2c1cnc1ccc(-c3cnc(N4CC(N(C)C)C4)c(NS(=O)(=O)C4CC4)c3)cc21 [Example 320, N-(2-(3-(Dimethylamino)azetidin-1-yl)-5-(3′-methyl-2′-oxo-2′,3′-dihydrospiro[cyclobulane-1,1′-pyrrolo[2,3-c]quinolin]-8′-yl)pyridin-3-yl)cyclopropanesulfonamide] | 1 to 100 | 1 to 100 | – | –
2 | CC1CCC12C(=O)N(C)c1cnc3ccc(-c4cnc(N5CC(N(C)C)C5)c(NS(C)(=O)=O)c4)cc3c12 (centres unmarked) [Example 325, N-(5-(2,3′-Dimethyl-2′-oxo-2′,3′-dihydrospiro[cyclobutane-1,1′-pyrrolo[2,3-c]quinolin]-8′-yl)-2-(3-(dimethylamino)azetidin-1-yl)pyridin-3-yl)methanesulfonamideformate] | 1 to 100 | 1 to 100 | – | –
3 | CCN(C)C1CN(c2ncc(-c3ccc4ncc5c(c4c3)C3(CCC3)C(=O)N5C)cc2NS(C)(=O)=O)C1 [Example 326, N-(2-(3-(Ethyl(methyl)amino)azetidin-1-yl)-5-(3′-methyl-2′-oxo-2′,3′-dihydrospiro[cyclobutane-1,1′-pyrrolo[2,3-c]quinolin]-8′-yl)pyridin-3-yl)methanesulfonamide hydrochloride] | 1 to 100 | 0.5 to 1 | – | –
4 | CNC1CN(c2ncc(-c3ccc4ncc5c(c4c3)C3(CCC3)C(=O)N5C)cc2NS(C)(=O)=O)C1 [Example 329, N-(5-(3′-Methyl-2′-oxo-2′,3′-dihydrospiro[cyclobutane-1,1′-pyrrolo[2,3-c]quinolin]-8′-yl)-2-(3-(methylamino)azetidin-1-yl)pyridin-3-yl) methanesulfonamide formate] | 1 to 100 | < 0.5 | – | –
5 | Cc1ncc(S(=O)(=O)Nc2cc(-c3ccc4ncc5c(c4c3)C3(CCC3)C(=O)N5C)cnc2N2CC(N(C)C)C2)s1 [Example 338, N-(2-(3-(Dimethylamino)azetidin-1-yl)-5-(3′-methyl-2′-oxo-2′,3′-dihydrospiro[cyclobutane-1,1′-pyrrolo[2,3-c]quinolin]-8′-yl)pyridin-3-yl)-2-methylthiazole-5-sulfonamide] | – | – | 1 to 100 | 1 to 100
6 | CN1CC2CN(c3ncc(-c4ccc5ncc6c(c5c4)C4(CCC4)C(=O)N6C)cc3NS(C)(=O)=O)CC2C1 (centres unmarked) [Example 350, N-(5-(3′-Methyl-2′-oxo-2′,3′-dihydrospiro[cyclobutane-1,1′-pyrrolo[2,3-c]quinolin]-8′-yl)-2-(5-methylhexahydropyrrolo[3,4-c]pyrrol-2(1H)-yl)pyridin-3-yl)methanesulfonamide formate] | – | – | 1 to 100 | 1 to 100
7 | CN1C(=O)C2(CCC2)c2c1cnc1ccc(-c3cnc(N4CCC(N5CCOCC5)CC4)c(NS(=O)(=O)N(C)C)c3)cc21 [Example 355, 8′-{5-[(Dimethylsulfamoyl)amino]-6-[4-(morpholin-4-yl)piperidin-1-yl]pyridin-3-yl}-3′-methyl-2′,3′-dihydrospiro[cyclobutane-1,1′-pyrrolo[2,3-c]quinoline]-2′-one] | – | – | 1 to 100 | 1 to 100
8 | CN1C(=O)C2(CCC2)c2c1cnc1ccc(-c3cnc(N4CCC(N5CCOCC5)CC4)c(NS(=O)(=O)C4CC4)c3)cc21 [Example 356, N-(5-(3′-Methyl-2′-oxo-2′,3′-dihydrospiro[cyclobutane-1,1′-pyrrolo[2,3-c]quinolin]-8′-yl)-2-(4-morpholinopiperidin-l-yl)pyridin-3-yl)cyclopropanesulfonamide hydrochloride] | – | – | < 0.5 | 0.5 to 1
9 | CN1C(=O)C2(CCC2)c2c1cnc1ccc(-c3cnc(N4CCC(N5CCOCC5)CC4)c(NS(C)(=O)=O)c3)cc21 [Example 357, N-(5-(3′-Methyl-2′-oxo-2′,3′-dihydrospiro[cyclobutane-1,1′-pyrrolo[2,3-c]quinolin]-8′-yl)-2-(4-morpholinopiperidin-l-yl)Pyridin-3-yl)methanesulfonamide hydrochloride] | – | – | 0.5 to 1 | 0.5 to 1
10 | CN1C(=O)C2(CCC2)c2c1cnc1cc(F)c(-c3cnc(N4CCC(N5CCCCC5)CC4)c(NS(C)(=O)=O)c3)cc21 [Example 358, N-(2-([1,4-Bipiperidin]-1′-yl)-5-(7′-fluoro-3′-methyl-2′-oxo-2′,3′-dihydrospiro[cyclobutane-1,1′-pyrrolo[2,3-c]quinolin]-8′-yl)pyridin-3-yl)methanesulfonamide hydrochloride] | – | – | 0.5 to 1 | 1 to 100
11 | CC(C)NCCOc1ncc(-c2cc3c4c(cnc3cc2F)N(C)C(=O)C42CCC2)cc1NS(=O)(=O)C1CC1 [Example 365, N-(5-(7′-Fluoro-3′-methyl-2′-oxo-2′,3′-dihydrospiro[cyclobutane-1,1′-pyrrolo[2,3-c]quinolin]-8′-yl)-2-(2-(isopropylamino)ethoxy)pyridin-3-yl)cyclopropanesulfonamide hydrochloride] | – | – | 1 to 100 | 1 to 100

More lines, now with the values ahead:

Row | IC50 (ATM; [1]) [nM] | IC50 (DNA-PK; ATP 20 μM) [nM] | IC50 (ATM; [2]) [nM] | IC50 (DNA-PK; 20 μM ATP) [nM] | SMILES
12 | 1 to 100 | 0.5 to 1 | – | – | CCS(=O)(=O)Nc1cc(-c2ccc3ncc4c(c3c2)C2(CCC2)C(=O)N4C)cnc1N1CC(N(C)C)C1 [Example 318, N-(2-(3-(Dimethylamino)azetidin-1-yl)-5-(3′-methyl-2′-oxo-2′,3′-dihydrospiro [cyclobulane-1,1′-pyrrolo[2,3-c]quinolin]-8′-yl)pyridin-3-yl)etlianesulfonamide]
13 | 1 to 100 | 1 to 100 | – | – | CN1C(=O)C2(CCC2)c2c1cnc1cc(F)c(-c3cnc(N4CC(N(C)C)C4)c(NS(=O)(=O)C4CC4)c3)cc21 [Example 319, N-(2-(3-(Dimethylamino)azetidin-1-yl)-5-(7′-fluoro-3′-methyl-2′-oxo-2′,3′-dihydrospiro[cyclobulane-1,1′-pyrrolo[2,3-c]quinolin]-8′-yl)pyridin-3-yl)cyclopropanesulfonamide hydrochloride]
14 | 1 to 100 | 1 to 100 | – | – | Cc1ccc(S(=O)(=O)Nc2cc(-c3cc4c5c(cnc4cc3F)N(C)C(=O)C53CCC3)cnc2N2CC(N(C)C)C2)cc1 [Example 323, N-(2-(3-(Dimethylamino)azetidin-1-yl)-5-(7′-fluoro-3′-methyl-2′-oxo-2′,3′-dihydrospiro[cyclobutane-1,1′-pyrrolo[2,3-c]quinolin]-8′-yl)pyridin-3-yl)-4-methylbenzenesulfonamide hydrochloride]
15 | 1 to 100 | 1 to 100 | – | – | CN1C(=O)C2(CCC2)c2c1cnc1cc(F)c(-c3cnc(N4CC(N(C)C)C4)c(NS(=O)(=O)c4ccccc4)c3)cc21 [Example 324, N-(2-(3-(Dimethylamino)azetidin-1-yl)-5-(7′-fluoro-3′-methyl-2′-oxo-2′,3′-dihydrospiro[cyclobutane-1,1′-pyrrolo[2,3-c]quinolin]-8′-yl)pyridin-3-yl)benzenesulfonamide hydrochloride]
16 | 1 to 100 | 0.5 to 1 | – | – | CNC1CN(c2ncc(-c3cc4c5c(cnc4cc3F)N(C)C(=O)C53CCC3)cc2NS(C)(=O)=O)C1 [Example 330, N-(5-(7′-Fluor-3′-methyl-2′-oxo-2′,3′-dihydrospiro [cyclobutane-1,1-pyrrolo[2,3-c]quinolin]-8′-yl)-2-(3-(methylamino)azetidin-1-yl)pyridin-3-yl) methanesulfonamide formate]
17 | 1 to 100 | 0.5 to 1 | – | – | CCNC1CN(c2ncc(-c3cc4c5c(cnc4cc3F)N(C)C(=O)C53CCC3)cc2NS(C)(=O)=O)C1 [Example 331, N-(2-(3-(Ethylamino)azetidin-1-yl)-5-(7′-fluoro-3′-methyl-2′-oxo-2′,3′-dihydrospiro [cyclobutane-1,1′-pyrrolo [2,3-c]quinolin]-8′-yl)pyridin-3-yl)methanesulfonamide]
18 | 1 to 100 | 1 to 100 | – | – | CNC1CN(c2ncc(-c3cc4c5c(cnc4cc3F)N(C)C(=O)C53CCC3)cc2NS(=O)(=O)N(C)C)C1 [Example 332, 8′-{5-[(Dimethylsulfamoyl)amino]-6-[3-(methylamino)azetidin-1-yl]pyridin-3-yl}-7′-fluoro-3′-methyl-2′,3′-dihydrospiro[cyclobutane-1,1′-pyrrolo[2,3-c]quinoline]-2′-one]
19 | 0.5 to 1 | 0.5 to 1 | – | – | CNC1CN(c2ncc(-c3cc4c5c(cnc4cc3F)N(C)C(=O)C53CCC3)cc2NS(=O)(=O)C2CC2)C1 [Example 333, N-(5-(7′-Fluoro-3′-methyl-2′-oxo-2′,3′-dihydrospiro [cyclobutane-1,1′-pyrrolo [2,3-c]quinolin]-8′-yl)-2-(3-(methylamino)azetidin-1-yl)pyridin-3-yl)cyclopropanesulfonamide]
20 | 1 to 100 | 0.5 to 1 | – | – | CCS(=O)(=O)Nc1cc(-c2cc3c4c(cnc3cc2F)N(C)C(=O)C42CCC2)cnc1N1CC(NC)C1 [Example 334]
21 | – | – | 1 to 100 | 1 to 100 | CCN(C)S(=O)(=O)Nc1cc(-c2ccc3ncc4c(c3c2)C2(CCC2)C(=O)N4C)cnc1N1CC(N(C)C)C1 [Example 339, 8′-{6-[3-(Dimethylamino)azetidin-1-yl]-5-{[ethyl(methyl)sulfamoyl]amino}pyridin-3-yl}-3′-methyl-2′,3′-dihydrospiro [cyclobutane-1,1′-pyrrolo[2,3-c]quinoline]-2′-one]
22 | – | – | 1 to 100 | 1 to 100 | CCS(=O)(=O)Nc1cc(-c2cc3c4c(cnc3cc2F)N(C)C(=O)C42CCC2)cnc1N1CC(N(C)C)C1 [Example 343, N-(2-(3-(Dimethylamino)azetidin-1-yl)-5-(7′-fluoro-3′-methyl-2′-oxo-2′,3′-dihydrospiro[cyclobutane-1,1′-pyrrolo[2,3-c]quinolin]-8′-yl)pyridin-3-yl)ethanesulfonamide formate]
